Measured values as given in PMC5373622, “Screening for AMPA receptor auxiliary subunit specific modulators” (PLoS ONE, 2017).

Tests used:
[1] = biological target: T1, tethered GluA2flip(Q)-stargazin (A2Q-stg cells) (Rattus norvegicus, UniProt P19491); assay: Calcium flux (Fluo-8) compound CRC assay on A2Q-stg cells
Description: (§3) Cell lines used in the calcium flux assay were GluA2flip(Q)-FLAG + GSG1L-1D4 pTREt-Va dual expression in TetON HEK cell clone #20 (A2Q-GSG), GluA2flip(Q)-FLAG + CNIH3-1D4 pTREt-Va dual expression in TetON HEK cell clone #8 (A2Q-C3), GluA2flip(Q)-FLAG pTREt-Va in TetON HEK cell clone #5 (A2Q), and tethered GluA2flip(Q)-FLAG-stargazin [28] in pTREt-Va dual expression in TetON HEK cell clone #13 (A2Q-stg) (Summarized in Table 1).
(§4) Compounds that were selected as hits using the VSD assay were subsequently screened against the calcium permeable A2Q-stg and A2Q-C3 cell lines in a glutamate potency fold-shift assay using the calcium sensing dye Fluo-8 (AAT Bioquest cat #21080). This assay is used to measure how pretreatment with compounds shifts the EC50 of glutamate on A2Q-stg and A2Q-C3 cells. 30 μM of each compound was pre-incubated with the cells for 120 secs and then an 11-point glutamate CRC from 4 mM to 10 pM was applied to the cells for 180 sec. […] Greiner 384-pp round-bottom plates containing glutamate solutions were dispensed by hand using a multi-channel pipet at 5X final concentration. […] Sodium butyrate and DOX were added to the cells at 1 mM and 5 μg/mL, respectively, 24 hours before screening. A2Q-stg cells were induced with 10 μg/mL DOX. Cells were incubated O/N and washed 4 times in low calcium buffer on an ELX405CW liquid aspirator and dispenser (BioTek). Buffer was left in the wells and an equal amount of 4.6 μM (2X) Fluo-8 (AAT Bioquest cat #21080) solution with 2.5 mM probenecid was added and incubated on the cells at room temperature for 40 minutes. Probenecid was added to block dye efflux from the cells [29]. Dye was washed off with low calcium buffer using the ELX405CW (BioTek) and plates were immediately inserted into the FDSS (Hamamatsu). Fluorescence signal was collected at 1 Hz using Ex. 480±20 nm/Em. 540±40 nm. Baseline signal was collected for 10 seconds followed by addition of 20 μl of 2X compound for a final concentration of 30 μM. After 290 seconds, 10 μl of a 5X glutamate solution in high calcium buffer (10 mM HEPES, pH 7.4, 140 mM NaCl, 5 mM KCl, 1 mM MgCl2, 9 mM CaCl2, and 10 mM glucose) was added for 180 seconds.
These compound CRCs were applied to the cells 2 minutes before a 1mM glutamate stimulation. […] Normalized FDSS traces were curve fit to CRCs using the initial GLUslope (GLUslope1) in a 3–6 sec window after glutamate application. […]
Cells were loaded with Fluo-8 and excess dye was washed out. […] We measured GLUslope in three consecutive time windows, referred to as GLUslope1-3, because three phases were clearly detectable (Fig 4C). The final CRC curves were calculated from GLUslope1, obtained from the first 3–6 sec window.
The final compound CRC curves were calculated from GLUslope1. […]

[2] = biological target: T2, GluA2flip(Q)-CNIH3 (A2Q-C3 cells) (Homo sapiens, UniProt P42262); assay: Calcium flux (Fluo-8) compound CRC assay on A2Q-C3 cells
Description: as §3, §4
(§5) These compound CRCs were applied to the cells 2 minutes before a 1mM glutamate stimulation. […] Normalized FDSS traces were curve fit to CRCs using the initial GLUslope (GLUslope1) in a 3–6 sec window after glutamate application. CRCs were also plotted for the traces’ area under the curve (AUC) in the GLUmaxmin window. […] Compounds were plotted as %max GLUslope against log [compound] and fit to a four-parameter logistical model as in the VSD.
(§6) Cells were loaded with Fluo-8 and excess dye was washed out. After 120 secs of pre-incubation with compound at concentrations ranging from 30 μM to 30 nM (Fig 4Bi), 1 mM glutamate was added (Fig 4Bii). In the calcium assay, 250 μM was used as the maxGLU dose because the GLUslope1 values decreased at higher concentrations of glutamate, making it the dose with the maximal GLUslope1 response. […] We measured GLUslope in three consecutive time windows, referred to as GLUslope1-3, because three phases were clearly detectable (Fig 4C). The final CRC curves were calculated from GLUslope1, obtained from the first 3–6 sec window.
(§7) The final compound CRC curves were calculated from GLUslope1. […] The AUC measures the accumulation of calcium instead of gating and sometimes produced a CRC fit when GLUslope1 could not derive an EC50 value.

[3] = biological target: GluA2flip(R)-stargazin (A2R-stg TetON HEK293 cells) (Homo sapiens, UniProt P42262, Q607R); assay: Voltage-sensitive dye (VSD) assay (primary screen, counter-screen, CRC) on A2R-stg cells; conditions: for concentration at which PAM/NAM activity is evident in raw VSD traces, A2R-stg: raw VSD data
Description: Cell lines used in the VSD assays were TetON HEK293 cells. […] We used GluA2flip(R) TetON HEK cell clone #4 that doxycycline (DOX) dependently expresses GluA2flip(R) (A2R). The A2R cells were used as the base cell line to derive cell lines that co-express auxiliary subunits.
(§8) Greiner 384-pp round-bottom plates containing glutamate for the second add were dispensed by hand using a multi-channel pipet at 5X final concentration. A2R-stg cells were plated in 384-well BD PureCoat amine-coated plates (Corning Life Sciences) at 16k cells/well in DMEM medium supplemented with 10% heat-inactivated FBS and 100U/mL PenStrep antibiotic. […] Cells were incubated overnight (O/N) and washed 4 times in HBSS containing 20 mM HEPES, pH 7.4, on an ELX405CW liquid aspirator and dispenser (BioTek). Buffer was left in the wells and an equal amount of 2X FLIPR dye solution was added and incubated on the cells at room temperature for 45 min. Fluorescence signal was collected at 1 Hz using Ex. 480±20 nm/Em. 540±40 nm on a Hamamatsu Functional Drug Screening System 6000 (FDSS). Baseline signal was collected for 10 seconds followed by addition of 10 μl of 5X compound for a final concentration of 10 μM.
Hits were selected from this initial screen using 4 different criteria, which we termed CMPDslope, CMPDmaxmin, GLUslope, and GLUmaxmin. […] GLUslope is the fitted slope of the increase in fluorescence within 10 sec after adding glutamate. GLUmaxmin is the difference in the minimum and maximum value in fluorescence signal reached in the 100 sec window after adding glutamate. Compounds were classified as hits if they differed by 3 standard deviations of the mean for each criterion. Tier 1 hits were classified as those that hit in the GLUslope, GLUmaxmin, and CMPDmaxmin windows. Tier 2 hits were classified as compounds that hit in the GLUslope window and either the GLUmaxmin or CMPDmaxmin window. Tier 3 hits were classified as those that hit in only the GLUslope or the GLUmaxmin window. Tier 4 hits were classified as compounds that hit only in the CMPD window, CMPDslope or CMPDmaxmin. Hit selection was further narrowed using the criterion that their signal must return to near baseline values before entering the glutamate add window.
VSD concentration response curves (CRCs): After the above counter-screens, compounds that remained positive were moved forward to collect complete CRCs for A2R-stg and A2R-C3 cell lines. This assay was carried out in the same way as the VSD screening assay except a 10-point concentration curve, from 40 μM to 10 nM, was plated in triplicate for each compound on a single 384-well plate. Data were summarized by plotting them as %max GLUslope against log [compound] that was fit to a four-parameter logistical model. %max GLUslope is defined as a normalized GLUslope expressed as a percentage of the mean maximum GLUslope, defined as 100, where background mean vehicle control (VHLslope) were subtracted from both values on a per plate basis. Thus, %max GLU slope = (GLUslope-mean VHLslope/mean maxGLUslope-mean VHLslope).

[4] = biological target: GluA2flip(Q)-GSG1L (A2Q-GSG cells) (Homo sapiens, UniProt P42262); assay: Calcium flux (Fluo-8) compound CRC assay on A2Q-GSG cells
Description: as §3, §4, §5, §6, §7

[5] = biological target: T1, tethered GluA2flip(Q)-stargazin (A2Q-stg cells); assay: Calcium flux (Fluo-8) glutamate potency fold-shift assay on A2Q-stg cells; assay type: cell-based; conditions: 30 μM compound
Description: (§1) In this assay, a maximal dose (30 μM) of each compound (Fig 4Di) was incubated on cells for 120 secs and then a CRC for glutamate ranging from 4 mM to 10 pM was collected (Fig 4Dii). A rightward shift of the CRC for glutamate to a higher EC50 indicates NAM activity and a leftward shift to a lower EC50 indicates PAM activity (Fig 4E). […] These compounds, considered active, were then evaluated as a CRC of the compounds in the calcium flux assay.

GluA2flip(Q) (A2Q cells) = biological target: T3, GluA2flip(Q) (A2Q cells) (Homo sapiens, UniProt P42262); assay: Calcium flux (Fluo-8) compound CRC assay on A2Q cells; assay type: cell-based
T3 construct: FLAG (C); expressed in transfected cells

[6] = biological target: T2, GluA2flip(Q)-CNIH3 (A2Q-C3 cells); assay: Calcium flux (Fluo-8) glutamate potency fold-shift assay on A2Q-C3 cells; assay type: cell-based; set-up: FLAG (C); expressed in transfected cells; conditions: 30 μM compound
Description: as §1

[7] = biological target: GluA2flip(R)-CNIH3 (A2R-C3 TetON HEK293 cells) (Homo sapiens, UniProt P42262, Q607R); assay: VSD assay (counter-screen, CRC) on A2R-C3 cells; conditions: for concentration at which PAM/NAM activity is evident in raw VSD traces, A2R-C3: raw VSD data
Description: Cell lines used in the VSD assays were TetON HEK293 cells. This was the parental cell line for all stable cell lines created. We used GluA2flip(R) TetON HEK cell clone #4 that doxycycline (DOX) dependently expresses GluA2flip(R) (A2R). The A2R cells were used as the base cell line to derive cell lines that co-express auxiliary subunits.
as §8
This assay was carried out in the same way as the VSD screening assay except a 10-point concentration curve, from 40 μM to 10 nM, was plated in triplicate for each compound on a single 384-well plate. Data were summarized by plotting them as %max GLUslope against log [compound] that was fit to a four-parameter logistical model. %max GLUslope is defined as a normalized GLUslope expressed as a percentage of the mean maximum GLUslope, defined as 100, where background mean vehicle control (VHLslope) were subtracted from both values on a per plate basis. Thus, %max GLU slope = (GLUslope-mean VHLslope/mean maxGLUslope-mean VHLslope).

[8] = biological target: T4, GluA2flip(R)-stargazin (A2R-stg cells) (Homo sapiens, UniProt P42262, Q607R); assay: Whole-cell electrophysiology with fast ligand application, A2R-stg cells; assay type: cell-based; conditions: 40 μM compound
T4 construct: expressed in transfected cells
Description: (§2) A2R-stg cells were plated on HNO3 washed coverslips coated with 1:20000 poly-d-lysine (incubated for 20 min, washed with PBS 2x and media 1x) for 2 hours. They were induced with 5 μg/mL DOX for 24 hours before recording. A2R cells were plated on 1:60000 poly-d-lysine for 2 hours and induced with 7.5 μg/mL DOX for 30 hours before recording. The cells were lifted from the coverslip after whole cell configuration was achieved and brought in front of the theta tubing. […] Recording was done using a single channel of a Multiclamp700B Amplifier (Axon Instruments) operated by pClamp10 software. Signals were digitized using Digidata1440A (Axon Instruments) at a sampling rate of 50 kHz and low pass filtered at 2kHz. Borosilicate glass capillaries (O.D. 1.5 mm, I.D. 0.86 mm, Sutter) were pulled to manufacture electrodes with pipette resistances of 3.5–5 MΩ.
Standard solution without ligand was the external solution. The ligand solution contained 1mM glutamate in external solution, supplemented with 2mM glucose and 3mM NaCl to facilitate visualizing the interface of the two solutions and recording liquid junction potential after breaking the patch. The 10–90% rise time of liquid junction potential was around 300μsec. VU0627849 was dissolved in external solution containing 1 mM glutamate to a final concentration of 40 μM. Tips of the tubing for each solution were positioned immediately before the opening of one compartment of the theta tubing. Drug-containing and drug-free glutamate solutions were switched using a manual valve located between the solution reservoir and theta glass tube. Solution speed was adjusted by the height of the reservoir using gravity.
We have conducted a preliminary electrophysiological investigation of the compound VU0627849. Using a fast ligand application system, A2R and A2R-stg cells were stimulated with 1mM glutamate using a 100 ms pulse followed by a 50 ms interval and a second 20 ms pulse to evaluate recovery from desensitization (Fig 10A and 10B red traces). […] These effects are drug specific because wash out of VU0627849 restored the original current (Fig 10B, black trace). We also see a small effect on A2R cells that was not seen in the VSD assay (Fig 10A blue trace). VU0627849 acted as a PAM on A2R-stg cells, corroborating our HTS data from the VSD assay.

[9] = biological target: T5, GluA2flip(R) (A2R TetON HEK293 cells) (Homo sapiens, UniProt P42262, Q607R); assay: VSD counter-screen on A2R cells; assay type: cell-based; conditions: 10 μM compound
T5 construct: expressed in transfected cells

GluA2flip(R) (A2R cells) = biological target: T6, GluA2flip(R) (A2R cells) (Homo sapiens, UniProt P42262, Q607R); assay: Whole-cell electrophysiology with fast ligand application, A2R cells; assay type: cell-based; conditions: 40 μM compound
T6 construct: expressed in transfected cells
Description: as §2
Standard solution without ligand was the external solution. The ligand solution contained 1mM glutamate in external solution, supplemented with 2mM glucose and 3mM NaCl to facilitate visualizing the interface of the two solutions and recording liquid junction potential after breaking the patch. The 10–90% rise time of liquid junction potential was around 300μsec. VU0627849 was dissolved in external solution containing 1 mM glutamate to a final concentration of 40 μM. […]

Sequence of GluA2flip(R)-stargazin (A2R-stg TetON HEK293 cells) (P42262 25-883 isoform P42262-2 Q607R limits assumed): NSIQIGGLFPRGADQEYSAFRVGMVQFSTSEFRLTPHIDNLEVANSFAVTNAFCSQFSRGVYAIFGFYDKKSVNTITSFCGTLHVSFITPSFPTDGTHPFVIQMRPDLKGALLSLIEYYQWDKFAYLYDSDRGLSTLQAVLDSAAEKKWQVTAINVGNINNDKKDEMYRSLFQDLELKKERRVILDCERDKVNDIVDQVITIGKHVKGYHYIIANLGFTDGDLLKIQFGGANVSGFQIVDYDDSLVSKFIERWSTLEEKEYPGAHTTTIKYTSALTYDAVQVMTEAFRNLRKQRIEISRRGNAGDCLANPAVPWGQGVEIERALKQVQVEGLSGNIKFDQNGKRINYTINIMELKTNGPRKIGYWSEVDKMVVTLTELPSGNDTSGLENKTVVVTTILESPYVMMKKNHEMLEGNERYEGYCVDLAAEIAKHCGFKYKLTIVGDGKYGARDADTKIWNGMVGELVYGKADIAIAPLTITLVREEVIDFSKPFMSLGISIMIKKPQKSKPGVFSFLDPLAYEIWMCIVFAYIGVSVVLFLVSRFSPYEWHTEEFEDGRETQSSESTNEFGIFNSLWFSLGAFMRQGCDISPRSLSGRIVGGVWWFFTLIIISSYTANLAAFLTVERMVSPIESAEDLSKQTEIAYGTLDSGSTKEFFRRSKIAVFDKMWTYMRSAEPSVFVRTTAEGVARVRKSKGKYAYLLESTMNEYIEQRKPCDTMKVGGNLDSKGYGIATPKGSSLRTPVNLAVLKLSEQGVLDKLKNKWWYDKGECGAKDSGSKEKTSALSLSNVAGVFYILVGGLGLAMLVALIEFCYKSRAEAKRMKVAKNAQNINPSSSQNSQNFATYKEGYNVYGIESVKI
Sequence of GluA2flip(R)-stargazin (A2R-stg TetON HEK293 cells) (Q9Y698 whole entry partner): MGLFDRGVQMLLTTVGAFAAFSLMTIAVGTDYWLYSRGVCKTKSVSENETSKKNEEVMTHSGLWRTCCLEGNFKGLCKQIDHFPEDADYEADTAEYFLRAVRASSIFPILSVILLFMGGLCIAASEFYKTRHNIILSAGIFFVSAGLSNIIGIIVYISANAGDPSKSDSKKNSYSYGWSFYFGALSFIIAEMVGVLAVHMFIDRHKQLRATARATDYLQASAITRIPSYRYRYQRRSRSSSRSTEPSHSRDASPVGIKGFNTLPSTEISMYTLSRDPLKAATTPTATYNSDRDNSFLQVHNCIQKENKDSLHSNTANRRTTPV
T4 sequence (P42262 25-883 isoform P42262-2 Q607R limits assumed): as the sequence (P42262 25-883 isoform P42262-2 Q607R limits assumed) above
T4 sequence (Q9Y698 whole entry partner): as the sequence (Q9Y698 whole entry partner) above
Sequence of GluA2flip(R)-CNIH3 (A2R-C3 TetON HEK293 cells) (P42262 25-883 isoform P42262-2 Q607R limits assumed): as the sequence (P42262 25-883 isoform P42262-2 Q607R limits assumed) above
Sequence of GluA2flip(R)-CNIH3 (A2R-C3 TetON HEK293 cells) (Q8TBE1 whole entry partner): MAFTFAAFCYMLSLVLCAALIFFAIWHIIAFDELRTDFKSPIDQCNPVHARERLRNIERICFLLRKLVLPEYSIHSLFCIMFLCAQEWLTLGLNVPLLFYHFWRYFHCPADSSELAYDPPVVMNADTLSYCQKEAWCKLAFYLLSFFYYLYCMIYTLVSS
T3 sequence (P42262 25-883 isoform P42262-2 limits assumed): as the sequence (P42262 25-883 isoform P42262-2 Q607R limits assumed) above, with R583Q counted along it
T2 sequence (P42262 25-883 isoform P42262-2 limits assumed): as the sequence (P42262 25-883 isoform P42262-2 Q607R limits assumed) above, with R583Q counted along it
T2 sequence (Q8TBE1 whole entry partner): as the sequence (Q8TBE1 whole entry partner) above
Sequence of GluA2flip(Q)-GSG1L (A2Q-GSG cells) (P42262 25-883 isoform P42262-2 limits assumed): as the sequence (P42262 25-883 isoform P42262-2 Q607R limits assumed) above, with R583Q counted along it
Sequence of GluA2flip(Q)-GSG1L (A2Q-GSG cells) (Q6UXU4 whole entry partner): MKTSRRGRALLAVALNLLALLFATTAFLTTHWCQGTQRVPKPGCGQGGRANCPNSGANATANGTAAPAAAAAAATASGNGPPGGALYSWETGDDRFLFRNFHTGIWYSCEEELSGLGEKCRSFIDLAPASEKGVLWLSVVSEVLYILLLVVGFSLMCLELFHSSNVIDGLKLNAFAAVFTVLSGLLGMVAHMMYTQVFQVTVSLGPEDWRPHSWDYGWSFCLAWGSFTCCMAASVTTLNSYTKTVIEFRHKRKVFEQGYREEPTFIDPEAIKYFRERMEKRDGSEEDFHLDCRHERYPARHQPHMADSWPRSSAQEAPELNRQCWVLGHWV
T1 sequence (P19491 22-883): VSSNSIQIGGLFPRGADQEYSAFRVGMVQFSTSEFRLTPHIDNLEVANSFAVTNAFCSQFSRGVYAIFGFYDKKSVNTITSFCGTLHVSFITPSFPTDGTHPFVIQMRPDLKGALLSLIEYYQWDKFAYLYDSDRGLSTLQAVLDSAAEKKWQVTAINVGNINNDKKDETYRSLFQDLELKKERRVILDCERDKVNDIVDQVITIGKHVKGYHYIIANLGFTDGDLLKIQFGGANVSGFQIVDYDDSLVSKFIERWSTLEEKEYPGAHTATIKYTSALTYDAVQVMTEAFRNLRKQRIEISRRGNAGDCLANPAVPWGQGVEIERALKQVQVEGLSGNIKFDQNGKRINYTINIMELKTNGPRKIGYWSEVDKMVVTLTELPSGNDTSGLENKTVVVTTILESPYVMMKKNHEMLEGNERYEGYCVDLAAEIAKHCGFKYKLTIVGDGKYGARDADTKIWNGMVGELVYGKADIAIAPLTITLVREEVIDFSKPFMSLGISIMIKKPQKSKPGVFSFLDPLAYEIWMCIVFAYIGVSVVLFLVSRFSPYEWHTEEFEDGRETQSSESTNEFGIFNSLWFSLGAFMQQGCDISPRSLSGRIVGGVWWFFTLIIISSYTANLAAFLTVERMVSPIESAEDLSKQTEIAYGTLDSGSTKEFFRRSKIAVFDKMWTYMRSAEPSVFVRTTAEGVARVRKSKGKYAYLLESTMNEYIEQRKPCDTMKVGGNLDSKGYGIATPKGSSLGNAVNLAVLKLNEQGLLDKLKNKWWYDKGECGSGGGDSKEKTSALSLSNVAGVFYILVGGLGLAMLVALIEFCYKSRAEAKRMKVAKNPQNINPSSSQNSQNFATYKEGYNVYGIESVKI
T1 sequence (Q71RJ2 whole entry partner): as the sequence (Q9Y698 whole entry partner) above, with I257V, E306D, N307S, S313A counted along it
T5 sequence (P42262 25-883 isoform P42262-2 Q607R limits assumed): as the sequence (P42262 25-883 isoform P42262-2 Q607R limits assumed) above
T6 sequence (P42262 25-883 isoform P42262-2 Q607R limits assumed): as above

SMILES	PAM/NAM activity in calcium flux CRC assay, A2Q-stg [1]	PAM/NAM activity in calcium flux CRC assay, A2Q-C3 [2]	EC50 [3] [µM]	PAM/NAM activity in VSD assay, A2R-stg [3]	PAM/NAM activity in calcium flux CRC assay, A2Q-GSG [4]	PAM/NAM categorisation in glutamate potency fold-shift assay, A2Q-stg [5]	PAM/NAM activity in calcium flux CRC assay, A2Q (GluA2flip(Q) (A2Q cells))	PAM/NAM categorisation in glutamate potency fold-shift assay, A2Q-C3 [6]	IC50 [7] [µM]	PAM/NAM activity in VSD assay, A2R-C3 [7]	concentration at which PAM/NAM activity is evident in raw VSD traces, A2R-stg [3]	concentration at which PAM/NAM activity is evident in raw VSD traces, A2R-C3 [7]	other results
COc1ccccc1CC(=O)NC1(c2nc(-c3ccsc3)no2)CCCCC1 [VU0539491]	Slight NAM activity	slight decrease in signal	4.2	PAM	PAM	NAM	Slight NAM activity	NAM	3.2	NAM	–	–	–
CCCc1c(C(=O)NC2CCCCC2)nnn1-c1ccccc1 [VU0612951]	negative trend	–	–	NAM	–	right-shifts	–	right-shifts	0.87	NAM	submicromolar	higher than 1 μM	IC50 [3]: 1.5 µM; decrease in %max GLUslope across the CRC, A2R-stg ([3]; VSD CRC 40 μM to 10 nM): ~ 40%; decrease in %max GLUslope across the CRC, A2R-C3 ([7]; VSD CRC 40 μM to 10 nM): ~ 40%
O=C(Cc1cc(-c2ccc3c(c2)OCCO3)on1)NCc1ccccc1 [VU0627849]	PAM	PAM	0.86	PAM	PAM	–	PAM	–	–	PAM	≥ 2.5 µM	≥ 2.5 µM	increase in response of A2Q-stg cells ([1]; 7.5 and 30 μM compound): ~ 300 arbitrary fluorescence units (AFU); EC50 [2]: 3.1 µM; positive change in %max GLUslope, A2Q-C3 ([2]; across calcium flux CRC): > 80%; PAM/NAM activity in electrophysiology, A2R-stg [8]: PAM; change in peak amplitude ([8]; 1 mM glutamate 100 ms pulse, preliminary): no change; amplitude in the second pulse of glutamate ([8]; second 20 ms pulse after 50 ms interval, preliminary): increased amplitude; resensitization ([8]; within 10 ms following initial activation and desensitization, preliminary): delayed increase in resensitization; Activity on A2R cells in counter-screens [9]: did not show any activity; EC50 [4]: 24.9 µM; positive change in %max GLUslope, A2Q-GSG ([4]; across calcium flux CRC): > 80%; effect on A2R cells in electrophysiology (GluA2flip(R) (A2R cells)): small effect; EC50 (GluA2flip(Q) (A2Q cells); CRC from GLUslope1, 1 mM glutamate, PAM, read-out: EC50 Ca2+ Sensing, A2Q): 14.1 µM; positive change in %max GLUslope, A2Q (GluA2flip(Q) (A2Q cells); across calcium flux CRC): > 80%; EC50 [7]: 0.85 µM
